Experimental data from US12528815B2, “5-amino-8-(4-pyridyl)-[1,2,4]triazolo[4,3-c]pyrimidin-3-one compounds for use against cancer” (Nxera Pharma UK Limited, priority 2020, dated 2026).

What was measured:
[1] = target: T1, human adenosine A1 receptor (Homo sapiens, UniProt P30542); assay: Inhibition binding assay, human adenosine A1 receptor membranes, [3H]DPCPX; conditions: 1 nM [3H]DPCPX, 25° C., 1 h; IC50 converted to Ki with Cheng-Prusoff; read-out: A1 pKi (converted)
T1 construct: expressed in transfected cells; host or cells: HEK293 cells infected with BacMam (the same paragraph also labels the preparation CHO-hA1)
T1 sequence (P30542 1-326): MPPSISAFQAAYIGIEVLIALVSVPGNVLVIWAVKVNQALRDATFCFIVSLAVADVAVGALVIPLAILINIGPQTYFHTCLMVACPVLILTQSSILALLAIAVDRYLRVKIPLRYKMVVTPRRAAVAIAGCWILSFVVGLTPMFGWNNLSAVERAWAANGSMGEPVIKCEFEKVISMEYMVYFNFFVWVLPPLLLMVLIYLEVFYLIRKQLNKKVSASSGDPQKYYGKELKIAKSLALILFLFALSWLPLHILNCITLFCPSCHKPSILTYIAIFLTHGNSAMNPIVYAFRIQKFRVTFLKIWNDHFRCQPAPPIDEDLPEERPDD
How it was run: (§1)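 Membranes from BacMam-infected HEK293 cells (0.2 μg A2A, 1.4 μg A1) incubated 1 h at 25° C with test compound and 1 nM [3H]ZM241385 (A2A; 50 mM Tris-HCl pH 7.4) or [3H]DPCPX (A1; plus 100 mM NaCl, 10 mM MgCl2). Nonspecific: 1 μM CGS15943 or DPCPX. Filtration, scintillation; IC50 converted to Ki via Cheng-Prusoff.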

[2] = target: T2, human adenosine A2A receptor (Homo sapiens, UniProt P29274); assay: Inhibition binding assay, human adenosine A2A receptor membranes, [3H]ZM241385; conditions: 1 nM [3H]ZM241385, HEK293-hA2A membranes, 25° C., 1 h; IC50 converted to Ki with Cheng-Prusoff; read-out: A2A pKi (converted)
T2 construct: expressed in transfected cells; host or cells: HEK293 cells infected with BacMam
How it was run: as §1

T2 sequence (P29274 whole entry): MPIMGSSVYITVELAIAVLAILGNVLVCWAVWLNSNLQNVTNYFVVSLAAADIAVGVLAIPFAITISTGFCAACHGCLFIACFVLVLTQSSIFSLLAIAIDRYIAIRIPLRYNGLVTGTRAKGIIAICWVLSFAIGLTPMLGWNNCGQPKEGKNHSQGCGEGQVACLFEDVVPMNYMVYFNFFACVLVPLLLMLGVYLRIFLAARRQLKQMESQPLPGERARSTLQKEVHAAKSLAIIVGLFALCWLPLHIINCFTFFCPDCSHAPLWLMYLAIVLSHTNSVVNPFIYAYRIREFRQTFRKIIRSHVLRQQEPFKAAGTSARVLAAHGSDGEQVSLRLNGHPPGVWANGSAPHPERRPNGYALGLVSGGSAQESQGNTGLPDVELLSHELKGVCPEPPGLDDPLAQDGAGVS

Ki [1] | Ki [2] | Structure (SMILES)
79.4 nM | 5.01 nM | Cc1cc(-c2c(-c3ccccc3)nc(N)n3c(=O)[nH]nc23)cc(C)n1 [Example 2-1, 5-amino-8-(2,6-dimethyl-4-pyridyl)-7-phenyl-2H-[1,2,4]triazolo[4,3-c]pyrimidin-3-one]
501 nM | 3.98 nM | CCCn1nc2c(-c3cc(C)nc(C)c3)c(-c3ccccc3)nc(N)n2c1=O [Example 2-20, 5-amino-8-(2,6-dimethyl-4-pyridyl)-7-phenyl-2-propyl-[1,2,4]triazolo[4,3-c]pyrimidin-3-one]
39.8 nM | 0.794 nM | Cc1cc(-c2c(-c3ccccc3)nc(N)n3c(=O)n(CCC(C)C)nc23)cc(C)n1 [Example 2-5, 5-amino-8-(2,6-dimethyl-4-pyridyl)-2-isopentyl-7-phenyl-[1,2,4]triazolo[4,3-c]pyrimidin-3-one]
316 nM | 1.58 nM | Cc1cc(-c2c(-c3ccccc3)nc(N)n3c(=O)n(CCCF)nc23)cc(C)n1 [Example 2-8, 5-amino-8-(2,6-dimethyl-4-pyridyl)-2-(3-fluoropropyl)-7-phenyl-[1,2,4]triazolo[4,3-c]pyrimidin-3-one]
631 nM | 15.8 nM | Cc1cc(-c2c(-c3ccccc3)nc(N)n3c(=O)n(CCN4CCC(F)(F)CC4)nc23)cc(C)n1 [Example 2-101, 5-amino-2-[2-(4,4-difluoro-1-piperidyl)ethyl]-8-(2,6-dimethyl-4-pyridyl)-7-phenyl-[1,2,4]triazolo[4,3-c]pyrimidin-3-one]
6.31 nM | 0.794 nM | Cc1cc(-c2c(-c3ccccc3)nc(N)n3c(=O)n(CCC(F)(F)F)nc23)cc(Cl)n1 [Example 2-48, 5-amino-8-(2-chloro-6-methyl-4-pyridyl)-7-phenyl-2-(3,3,3-trifluoropropyl)-[1,2,4]triazolo[4,3-c]pyrimidin-3-one]
> 3160 nM | 63.1 nM | Cc1cc(-c2c(-c3ccccc3)nc(N)n3c(=O)n(CCN(C)CC(=O)N4CCC(O)CC4)nc23)cc(C)n1 [Example 2-107, 5-amino-8-(2,6-dimethyl-4-pyridyl)-2-[2-[[2-(4-hydroxy-1-piperidyl)-2-oxo-ethyl]-methyl-amino]ethyl]-7-phenyl-[1,2,4]triazolo[4,3-c]pyrimidin-3-one]

Continued, compound first:

Structure (SMILES) | Ki [1] | Ki [2]
Cc1cc(-c2c(-c3ccc(F)cc3)nc(N)n3c(=O)n(CCc4ccccc4)nc23)cc(C)n1 [Example 1-87, 5-amino-8-(2,6-dimethyl-4-pyridyl)-7-(4-fluorophenyl)-2-(2-phenylethyl)-[1,2,4]triazolo[4,3-c]pyrimidin-3-one] | 501 nM | 15.8 nM
Cc1cc(-c2c(-c3ccc(F)cc3)nc(N)n3c(=O)n(Cc4ccc(F)c(N)n4)nc23)cc(CO)n1 [Example 1-60, 5-amino-2-[(6-amino-5-fluoro-2-pyridyl)methyl]-7-(4-fluorophenyl)-8-[2-(hydroxymethyl)-6-methyl-4-pyridyl]-[1,2,4]triazolo[4,3-c]pyrimidin-3-one] | 794 nM | 1.58 nM
Cc1cc(-c2c(-c3ccccc3)nc(N)n3c(=O)n(Cc4ccc(F)c(=O)[nH]4)nc23)cc(C)n1 [Example 1-8, 5-amino-8-(2,6-dimethyl-4-pyridyl)-2-[(5-fluoro-6-oxo-1H-pyridin-2-yl)methyl]-7-phenyl-[1,2,4]triazolo[4,3-c]pyrimidin-3-one] | 316 nM | 25.1 nM
Cc1cc(-c2c(-c3ccccc3)nc(N)n3c(=O)n(Cc4cccnc4-n4cccn4)nc23)cc(C)n1 [Example 1-19, 5-amino-8-(2,6-dimethyl-4-pyridyl)-7-phenyl-2-[(2-pyrazol-1-yl-3-pyridyl)methyl]-[1,2,4]triazolo[4,3-c]pyrimidin-3-one] | 100 nM | 1.26 nM
Cc1cc(-c2c(-c3ccccc3)nc(N)n3c(=O)n(CC4CCCS(=O)(=O)C4)nc23)cc(C)n1 (single isomer, unassigned) [Example 2-89-iso-2, 5-amino-8-(2,6-dimethyl-4-pyridyl)-2-[(1,1-dioxothian-3-yl)methyl]-7-phenyl-[1,2,4]triazolo[4,3-c]pyrimidin-3-one] | 316 nM | 25.1 nM
Cc1cc(-c2c(-c3ccccc3)nc(N)n3c(=O)n(Cc4cccnn4)nc23)cc(C)n1 [Example 1-5, 5-amino-8-(2,6-dimethyl-4-pyridyl)-7-phenyl-2-(pyridazin-3-ylmethyl)-[1,2,4]triazolo[4,3-c]pyrimidin-3-one] | 251 nM | 2.51 nM
Cc1cc(-c2c(-c3ccccc3)nc(N)n3c(=O)n(Cc4ccc(Cl)cn4)nc23)cc(CO)n1 [Example 1-55, 5-amino-2-[(5-chloro-2-pyridyl)methyl]-8-[2-(hydroxymethyl)-6-methyl-4-pyridyl]-7-phenyl-[1,2,4]triazolo[4,3-c]pyrimidin-3-one] | 501 nM | 1.58 nM
Cc1cc(-c2c(-c3ccccc3)nc(N)n3c(=O)n(CCc4ccc(O)cc4)nc23)cc(C)n1 [Example 1-82, 5-amino-8-(2,6-dimethyl-4-pyridyl)-2-[2-(4-hydroxyphenyl)ethyl]-7-phenyl-[1,2,4]triazolo[4,3-c]pyrimidin-3-one] | 251 nM | 12.6 nM
Cc1cc(-c2c(-c3ccccc3)nc(N)n3c(=O)n(Cc4ccccc4C4CCNCC4)nc23)cc(C)n1 [Example 1-30, 5-amino-8-(2,6-dimethyl-4-pyridyl)-7-phenyl-2-[[2-(4-piperidyl)phenyl]methyl]-[1,2,4]triazolo[4,3-c]pyrimidin-3-one] | 39.8 nM | 0.501 nM
Cc1cc(-c2c(-c3ccccc3)nc(N)n3c(=O)n(CCc4ccc(C(=O)O)cc4)nc23)cc(C)n1 [Example 1-85, 4-[2-[5-amino-8-(2,6-dimethyl-4-pyridyl)-3-oxo-7-phenyl-[1,2,4]triazolo[4,3-c]pyrimidin-2-yl]ethyl]benzoic acid] | > 3980 nM | 200 nM
COc1ccc(Cn2nc3c(-c4cc(C)nc(C)c4)c(-c4ccccc4)nc(N)n3c2=O)cc1 [Example 1-3, 5-amino-8-(2,6-dimethyl-4-pyridyl)-2-[(4-methoxyphenyl)methyl]-7-phenyl-[1,2,4]triazolo[4,3-c]pyrimidin-3-one] | 25.1 nM | 6.31 nM
COc1ccc(Cn2nc3c(-c4cc(C)nc(C)c4)c(-c4ccccc4)nc(N)n3c2=O)nn1 [Example 1-33, 5-amino-8-(2,6-dimethyl-4-pyridyl)-2-[(6-methoxypyridazin-3-yl)methyl]-7-phenyl-[1,2,4]triazolo[4,3-c]pyrimidin-3-one] | 1000 nM | 25.1 nM
Cc1cc(-c2c(-c3ccccc3)nc(N)n3c(=O)n(Cc4ccccc4C)nc23)cc(C)n1 [Example 1-17, 5-amino-8-(2,6-dimethyl-4-pyridyl)-2-(o-tolylmethyl)-7-phenyl-[1,2,4]triazolo[4,3-c]pyrimidin-3-one] | 1 nM | 0.316 nM
Cc1cc(-c2c(-c3ccccc3)nc(N)n3c(=O)n(C(CNCC(F)(F)F)c4ccccc4)nc23)cc(C)n1 (stereo not drawn) [Example 1-31, 5-amino-8-(2,6-dimethyl-4-pyridyl)-7-phenyl-2-[1-phenyl-2-(2,2,2-trifluoroethylamino)ethyl]-[1,2,4]triazolo[4,3-c]pyrimidin-3-one] | 316 nM | 10 nM
